Measurements from publication PMC10205660 (Chemistry (Weinheim an der Bergstrasse, Germany), 2023).

Tests used:
MCF7 (breast cancer) = assay: Antiproliferative activity, MCF7; assay type: cell-based; conditions: read-out: IC50 values MCF7; MCF7
K562 (leukemia) = assay: Antiproliferative activity, K562; assay type: cell-based; conditions: read-out: IC50 values K562; K562
A549 (lung cancer) = assay: Antiproliferative activity, A549; assay type: cell-based; conditions: read-out: IC50 values A549; A549
HEK293 = conditions: read-out: IC50 against normal cell line HEK293; cited from earlier work
MRC5 = conditions: read-out: IC50 against normal cell line MRC5; cited from earlier work
[1] = test system: Hsp90-dependent client proteins (pAkt, Cyclin D1, GLUT1), Hsp70, Hsp90 in MCF7 cells; conditions: MCF7, 48-hour incubation; cited from earlier work

## CCCC(O)C(C)C(=O)NC/C=C\CC(C)C(O)C(C)C1C/C=C\CC(C)C(O)Cc2cc(OC)cc(O)c2C(=O)O1 (stereo not drawn) [Compound 1, Cruentaren A, reference compound]
MCF7 (breast cancer)
  IC50: 4.67 nM
K562 (leukemia)
  IC50: 1.5 nM
A549 (lung cancer)
  IC50: 0.75 nM
HEK293
  IC50: > 500 nM
MRC5
  IC50: > 500 nM
[1]
  degradation of Hsp90-dependent client proteins: induced the degradation
